Experimental data taken from article PMC12867150, “A fungi-derived cyclic peptide enhances Th9-mediated antitumor immunity by targeting ZAP70 and SREBP1” (The Journal of Clinical Investigation, 2025).
Where “and” joins values, the source holds several entries; their conditions need not be identical. Identical values can stand only once.

How the values were obtained:
[1] = test system: transferred CD45.1+ Th9 cells; experiment: Cytokines and granzyme B/perforin in transferred CD45.1+ Th9 cells (Figure 3G, S4A-C); format: in vivo, mouse; design: IFN-γ expression / TNF-α expression / Expression of IFN-γ of transferred CD45.1⁺ OT-II Th9 cells in tumors / Expression of TNF-α of transferred CD45.1⁺ OT-II Th9 cells in tumors: unit not given here; conditions: for Expression of GzmB+Perforin+ of transferred CD45.1⁺ OT-II Th9 cells in tumor: Supplemental Figure 4C; for Expression of IFN-γ of transferred CD45.1⁺ OT-II Th9 cells in tumors: Supplemental Figure 4A; for Expression of TNF-α of transferred CD45.1⁺ OT-II Th9 cells in tumors: Supplemental Figure 4B
Description: (§1) C57BL/6 mice were subcutaneously injected with 5 × 10^5 B16-OVA melanoma cells. Five days after tumor implantation, mice received an intravenous infusion of 2 × 10^6 in vitro–differentiated Th9 cells (cultured for 5 days), which were derived from OT-II CD45.1 donor mice, accompanied by 4 × 10^5 OVA peptide–pulsed DCs via the tail vein. To enhance T cell engraftment and facilitate lymphodepletion, a single intraperitoneal injection of cyclophosphamide (200 mg/kg, Sigma, catalog C0768) was administered 1 day prior to T cell transfer. Mice were euthanized at designated time points for the collection and analysis of spleens, tumor-draining lymph nodes, and tumor tissues.
Details regarding staining panels (human and mouse), reagents (including clones and catalog numbers), acquisition settings, compensation/controls, and analysis procedures are provided in Supplemental Methods.
BioLegend, Cat. No. 422301 or Mouse TruStain FcX™, BioLegend, Cat. No. 101319) for 10 minutes at 4°C. For surface marker detection, cells were stained with fluorochrome-conjugated monoclonal antibodies in 96-well V-bottom plates and incubated on ice for 30 minutes. After staining, cells were washed twice and resuspended in FACS buffer for analysis.
Prior to intracellular cytokine staining, cells were restimulated for 4 hours with PMA (Absin, Cat. No. abs9107), ionomycin (Sigma-Aldrich, Cat. No. I0634), and brefeldin A (MedChemExpress, Cat. No. HY-16592). For intracellular cytokine staining, cells were first surface-stained as described above, then fixed and permeabilized using the BD Cytofix/Cytoperm™ kit (BD Biosciences, Cat. No. 554714) according to the manufacturer ’s protocol. Intracellular proteins were stained with directly conjugated antibodies targeting IL-9, IL-17a, IL-4, IFN-γ, TNF-α, FOXP3, p-ZAP70, Perforin, and […]
Antibodies used for mouse samples included those against IL-9 (PE, clone RM9A4, Biolegend, Cat. No. 514104), IFN-γ (PE, clone XMG1.2, Biolegend, Cat. No.
Cat. No. 103138), CD4 (APC/Cy7, clone E-AB-F1353UJ, Elabscience, Cat. No.
AF18028), CD8α (PerCP/Cy5.5, clone E-AB-F1104UJ, Elabscience, Cat. No. […]
clone E-AB-F1187UH, Elabscience, Cat. No. AF19854), TNF-α (BV421, clone MP6-XT22, Biolegend, Cat. No. 506328), FOXP3 (PE, clone FJK-16s, eBioscience, Cat. No.
Perforin (APC, clone S16009A, Biolegend, Cat. No. 154303) and Granzyme B (APC, clone QA16A02, Biolegend, Cat. No. 372203). For human samples, antibodies against CD4 (PerCP/Cy5.5, clone RPA-T4, Biolegend, Cat. No. 300530; APC/Cy7, clone OKT4, Biolegend, Cat. No. 317418), CD19 (APC/Cy7, clone SJ25C1, Biolegend, Cat.
No. 363009), IFN-γ (PE, clone 4S.B3, Biolegend, Cat. No. 502509), IL-9 (PE, clone

ZAP70 = experiment: CETSA of ZAP70 in Jurkat cell lysates (Figure 5C-D); format: binding, Jurkat cells; conditions: result in words
Description: Jurkat or 293T cells were washed twice with PBS and resuspended in PBS containing protease and phosphatase inhibitors. Cells were lysed by 3 cycles of liquid nitrogen snap-freezing and thawing at room temperature. […] One aliquot from each group was maintained at room temperature, and the others were heated for 3 minutes at 3 °C increments from 43°C to 64°C. Samples were then analyzed by SDS-PAGE and immunoblotting to assess protein thermal stability and compound binding.

[2] = test system: natural killer (NK) cells; experiment: Flow cytometry of NK cells (S1L-M); format: in vivo, mouse; design: key to Frequencies of NK in Spleen / Frequencies of NK in LN: % of cells; conditions: for Frequencies of NK in LN: Supplemental Figure 1M left; for number of NK in LN: Supplemental Figure 1M right; for NK (NK1.1) gate number: representative flow plot; for Frequencies of NK in Spleen: Supplemental Figure 1L left; for number of NK in Spleen: Supplemental Figure 1L right
Description: as §1
Details regarding staining panels (human and mouse), reagents (including clones and catalog numbers), acquisition settings, compensation/controls, and analysis procedures are provided in Supplemental Methods. […]
Figure S1. EpA enhances immune responses. […]
(L and M) Representative plots, frequencies, and total numbers of natural killer (NK) cells in spleens (L) and LNs (M). Data in (A–M) are shown as mean ± SEM from n = 4 mice per group. Statistical analysis was performed using two-way ANOVA with Tukey’s post hoc test (A), one-way ANOVA with Tukey’s post hoc test (B) or two-tailed unpaired Student’s t-test (D and G–M). ns, not significant. *p < 0.05, **p < 0.01, ****p < 0.0001.
(also on this page, place not known: Mouse weight (g) CtrlEpA CtrlEpA CtrlEpA0 I CD45.1+ T cells (%) CtrlEpA CD4+ T cells (%) CtrlEpA CtrlEpA CtrlEpA FSC CD8 CD8 FSC FSC FSC BNumber of CD45.1+ T cells (×103 per mgĎ Number of CD4+ T cells (×104 per mgĎ DC (%)NK cells (%) NK cells (%) DC (%) Number of DC (×103 per mg) Number of NK cells (×105) Number of NK cells (×103 per mg) Number of DC (×105) FSC FSC FSC CD8 CtrlEpA CtrlEpA CtrlEpA CD8+ T cells (%) Number of CD8+ T cells (×104 per mgĎ nsns ns nsns ns 40 IL-6 (pg/ml))

[3] = transferred CD45.1+ Th9, spleen, individual mice, n = 4
[4] = transferred cells, tumor, result in words

anteiso-C15 Leu7 surfactin [EpA]
GzmB+ PRF1+ gate number ([1]; CD45.1+ T cells in tumors, representative flow plot, Figure S4C): 34.1
GzmB and Perforin expression [1, 3]: 68.8 and 68 and 57.8 and 55.7
IFN-γ expression [1, 3]: 3.05 and 4.37 and 6.82 and 2.23
TNF-α expression [1, 3]: 23.2 and 21 and 17.5 and 23.6
IFN-γ, TNF-α, granzyme B and perforin ([1]; transferred cells, spleen, result in words): markedly increased expression
IFN-γ expression [1, 4]: elevated
TNF-α levels [1, 4]: remained unchanged
granzyme B+ perforin+ frequency [1, 4]: significantly higher
Expression of GzmB+Perforin+ of transferred CD45.1⁺ OT-II Th9 cells in tumor ([1]; tumor, replicate 1): 20.5
Expression of GzmB+Perforin+ of transferred CD45.1⁺ OT-II Th9 cells in tumor ([1]; tumor, replicate 2): 18.9
Expression of GzmB+Perforin+ of transferred CD45.1⁺ OT-II Th9 cells in tumor ([1]; tumor, replicate 3): 25.9
Expression of GzmB+Perforin+ of transferred CD45.1⁺ OT-II Th9 cells in tumor ([1]; tumor, replicate 4): 34.1
Expression of IFN-γ of transferred CD45.1⁺ OT-II Th9 cells in tumors ([1]; replicate 1): 386
Expression of IFN-γ of transferred CD45.1⁺ OT-II Th9 cells in tumors ([1]; replicate 2): 392
Expression of IFN-γ of transferred CD45.1⁺ OT-II Th9 cells in tumors ([1]; replicate 3): 420
Expression of IFN-γ of transferred CD45.1⁺ OT-II Th9 cells in tumors ([1]; replicate 4): 261
Expression of TNF-α of transferred CD45.1⁺ OT-II Th9 cells in tumors ([1]; replicate 1): 916
Expression of TNF-α of transferred CD45.1⁺ OT-II Th9 cells in tumors ([1]; replicate 2): 557
Expression of TNF-α of transferred CD45.1⁺ OT-II Th9 cells in tumors ([1]; replicate 3): 913
Expression of TNF-α of transferred CD45.1⁺ OT-II Th9 cells in tumors ([1]; replicate 4): 544
thermal stability of ZAP70 (ZAP70): increased thermal stability of ZAP70
Frequencies of NK in LN ([2]; LN, replicate 1): 1.5
Frequencies of NK in LN ([2]; LN, replicate 2): 1.56
Frequencies of NK in LN ([2]; LN, replicate 3): 7.14
Frequencies of NK in LN ([2]; LN, replicate 4): 7.79
number of NK in LN ([2]; LN, replicate 1): 2211.77
number of NK in LN ([2]; LN, replicate 2): 2015.49
number of NK in LN ([2]; LN, replicate 3): 5620.7
number of NK in LN ([2]; LN, replicate 4): 5844.48
NK (NK1.1) gate number ([2]; LN, Figure S1M): 1.56
Frequencies of NK in Spleen ([2]; Spleen, replicate 1): 14.2
Frequencies of NK in Spleen ([2]; Spleen, replicate 2): 14.6
Frequencies of NK in Spleen ([2]; Spleen, replicate 3): 14.4
Frequencies of NK in Spleen ([2]; Spleen, replicate 4): 13.7
number of NK in Spleen ([2]; Spleen, replicate 1): 1287047
number of NK in Spleen ([2]; Spleen, replicate 2): 1289552
number of NK in Spleen ([2]; Spleen, replicate 3): 1303518
number of NK in Spleen ([2]; Spleen, replicate 4): 1053933
NK (NK1.1) gate number ([2]; Spleen, Figure S1L): 14.2
NK cells ([2]; result in words): increased only in the spleen
